The text below walks through data of patent US20130315940A1, “TREATMENT OF LIVER CANCER” (priority 2010, published 2013).

“Also recorded” adds a separate entry of the source.

Assay [1] has as its system HUCCT (cholangiocarcinoma). Briefly: Cholangiocarcinoma implantation in immunodeficient NOD-SCID mice. It counts as in vivo. The conditions noted are these: for tumour size: after 50 days, compared with control, chloroquine 25 mg/kg in water supply (p<0.001), IRS 954 50 μl i.p. once weekly (p<0.01). Here is the method:
12 NOD-SCID mice were injected intrahepatically with 5×10^6 cells of HUCCT (cholangiocarcinoma). […] After 50 days a mass was found subcutaneously.

Assay [2] concerns HuH7 hepatocellular carcinoma cell line. Briefly: Cell proliferation in culture (cell counting, Promega proliferation assay), HuH7. It counts as cell-based. The conditions noted are these: FIG. 13A, HuH7, in the presence of cpg. The text has this: Using different techniques, manual cell counting, nucleo-counter machine and Promega proliferation assay. Using 10^4 […] 96 wells plate treat some of them with cpg (TLR9 stimulator; […] In Huh7, HepG2 and HUCCT

In a further assay the test system is Hepatocellular carcinoma. Briefly: Chloroquine in a rodent model of HCC (DEN and NMOR). It counts as in vivo, fisher rats. The settings on record: for animals that developed evidence of hepatocellular carcinoma: Chloroquine 25 mg/kg/day with DEN and NMOR, weeks 8, 10 and 12 pooled. Here is the method:
40 five weeks old male fisher rats were studied. They were divided into 2 groups, Group 1 contained 15 rats who were taking DEN and NMOR alone. […] The rats have been given 100 mg/kg DEN (Diethylnitrosamine) (sigma) once intraperitoneal. Nitosomorpholine (NMOR) was been supplied in water with concentration of 80 ppm.
Liver and blood were collected from the animals after 8, 10 and 12 weeks respectively. […] (Table 2)

A further assay deals with HCC. Briefly: Animal model for HCC: DEN and NMOR treated Fisher rats plus norfloxacin. It counts as in vivo, Fisher rat. The conditions noted are these: for fibrosis grade: DEN + NMOR + norfloxacin 20 mg/kg per day by gavage, 14 weeks treatment, end at 16th week. Here is the method:
We chose a Fisher Rat to be our model. We started with 18 Fisher rats, which were 5 weeks old on the beginning of the experiment. We divided them into 3 groups. They were acclimatised for one week before the experiment at room temperature […] and humidity 60%-65%. The first group used 6 Fisher rats as an HCC model. On the day we started we weighed them and determined the exact dose for each rat.
We started with a single dose of DEN (Diethylnitrosamine™, sigma) using 100 mg/kg as single intraperitoneal injection. Then we put NMOR (Nitrosomorpholine™, Sigma) in the concentration of 80 ppm in the water for 14 weeks. The second group, another 6 Fisher rats, got the same HCC model treatment (DEN and NMOR) plus we gavaged them with norfloxacin in the dose of 20 mg/kg per day. The third group, at the same time, was 6 rats with a control of just plain water. We weighed them every other day and stopped treatment on the 14th week, then left them for two more weeks until the 16th week. We noticed the two groups who took the DEN and NMOR didn't increase in weight at the same rate as the control.
When we started our experiment the rats average weights were 212-241 g in the 1st group, 225-260 g and 221-249 g in the 2nd and 3rd groups respectively. At the end of experiment for the groups that took the carcinogenecic treatment average weights were 328-353 g and 330-372 g respectively. For the control group the average weight was 430-478 g. […] Control group: Smooth bright outer surface of the liver.

`CCN(CC)CCCC(C)Nc1ccnc2cc(Cl)ccc12` (centres unmarked) [Chloroquine]: in assay [1] (FIG. 11B, compared with controls), the “size of the nodules” value was “significantly smaller”. Also, the tumour size entry in assay [1] is “significant reduction”; in assay [1] (listed as chloroquine), “significantly less”. Also, in assay [2], the “inhibition of cpg associated proliferation” value was “significantly inhibited”. Moreover, the “animals that developed evidence of hepatocellular carcinoma” value with Hepatocellular carcinoma (untreated group 8/9, p<0.0001) is listed as 1/10; in the assay on Hepatocellular carcinoma (untreated group 89%) it was 10%. Further, in the assay with Hepatocellular carcinoma (FIG. 10, DEN and NMOR group administered chloroquine), the “microscopic and macroscopic appearance of hepatocellular carcinoma” value is recorded as “not seen; also recorded: no cancer was apparent either microscopically or macroscopically”. In addition, the “HCC in Chloroquine treated” value in the assay with Hepatocellular carcinoma (Week 8th, DEN & NMOR alone 2/3) was 1/4; with Hepatocellular carcinoma (Week 10th, DEN & NMOR alone 3/3) it was 0/3; with Hepatocellular carcinoma (Week 12th, DEN & NMOR alone 3/3), 0/3.
As to `CCn1cc(C(=O)O)c(=O)c2cc(F)c(N3CCNCC3)cc21` [norfloxacin], the results for the fibrosis grade with HCC and in the assay on HCC (listed as Norfloxacin) were 0-2 and “minimal fibrosis”, respectively. For the same molecule, the “HCC development / tumour grade” value with HCC (DEN + NMOR + norfloxacin group (2nd group)) was “developed well-differentiated HCC except one”. Besides, in the assay with HCC (DEN, NMOR and Norfloxacin group versus DEN and NMOR group), the liver nodules result is recorded as “less nodules than the first group”.
